This experiment concerns the target GPR120L receptor (Homo sapiens (Human), UniProt Q5NUL3). Nature of the experiment: Beta (β) arrestin 2 Interaction Assay (BRET assay), β-galactosidase enzyme fragment complementation. It is filed as cell-based. The settings on record: CHO-K1 cells stably expressing the GPR120L receptor; β-arrestin recruitment; 2 hours incubation. On the procedure:
Beta (β) arrestin 2 Interaction Assay (BRET assay) was performed using CHO-K1 cells stably expressing the GPR120L receptor using β-galactosidase (Beta gal) enzyme fragment complementation assay. The measurement of GPR120 activation upon agonist activation was directly provided by β-arrestin recruitment. One day before the β-arrestin 2 assay, CHO-K1 cells were seeded and incubated overnight at 37° C. in a 5% CO2 humidified atmosphere. Cells were treated with the test compounds in the various concentrations ranging from 30 μM to 1 nM and incubated for 2 hours for GPCR (GPR120) activation. Extent of Arrestin recruitment was measured by adding detection reagents for Beta gal complementation assay and was further incubated for 1 hour. The chemi-luminescent signal was detected on Polar Star (BMG Labtech). The dose-response curve was analyzed using Sigma Plot/Graph Pad. The EC50 (concentration of the test compounds where 50% of compounds' maximal activity is observed) values were calculated from the dose-response curve.
Sequence of GPR120L receptor (Q5NUL3 other isoform, or with tags, fused parts or gaps): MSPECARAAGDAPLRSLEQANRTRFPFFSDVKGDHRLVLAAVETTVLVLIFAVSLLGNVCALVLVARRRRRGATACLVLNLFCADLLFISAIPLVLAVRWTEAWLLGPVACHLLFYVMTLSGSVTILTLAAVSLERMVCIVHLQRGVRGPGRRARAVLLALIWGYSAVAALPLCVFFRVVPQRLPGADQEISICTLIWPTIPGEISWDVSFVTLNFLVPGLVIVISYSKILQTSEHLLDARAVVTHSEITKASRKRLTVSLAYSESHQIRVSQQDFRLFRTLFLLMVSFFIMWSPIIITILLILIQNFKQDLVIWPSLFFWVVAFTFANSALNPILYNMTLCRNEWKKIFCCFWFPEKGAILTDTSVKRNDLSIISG
With `COC1CCCc2cc(-c3ccc(F)cc3COc3ccc(CCCC(=O)O)cc3)ccc21` (stereo not shown) [Example 38, 4-(4-((5-Fluoro-2-(5-methoxy-5,6,7,8-tetrahydronaphthalen-2-yl)benzyl)oxy)phenyl)butanoic acid], the EC50 fell in the range of 5000 to 50000 nM.
With `COC1(C)CCCc2cc(-c3ccc(F)cc3COc3ccc(CCCC(=O)O)cc3)ccc21` (stereo not shown) [Example 39, 4-(4-((5-Fluoro-2-(5-methoxy-5-methyl-5,6,7,8-tetrahydronaphthalen-2-yl)benzyl)oxy)phenyl)butanoic acid] the figure was 5000 to 50000 nM.
The value for `CC1(c2ccc(-c3ccc(F)cc3COc3ccc(CCCC(=O)O)cc3)s2)CC1` [Example 40, 4-(4-((5-Fluoro-2-(5-(1-methylcyclopropyl)thiophen-2-yl)benzyl)oxy)phenyl)butanoic acid] was 10 to 500 nM; that for `O=C(O)CCCc1ccc(OCc2cc(F)ccc2-c2nc3c(s2)CCCCC3)cc1` [Example 41, 4-(4-((5-Fluoro-2-(5,6,7,8-tetrahydro-4H-cyclohepta[d]thiazol-2-yl)benzyl)oxy)phenyl)butanoic acid] was 10 to 500 nM; that for `O=C(O)CCCc1ccc(OCc2cc(F)ccc2-c2ccc(C3(F)CC3)s2)cc1` [Example 42, 4-(4-((5-Fluoro-2-(5-(1-fluorocyclopropyl)thiophen-2-yl)benzyl)oxy)phenyl)butanoic acid] was 5000 to 50000 nM.
The value for `O=C(O)CCCc1ccc(OCc2cc(F)ccc2-c2ccc(C3CC3(F)F)cc2)cc1` (stereo not shown) [Example 43, 4-(4-((4′-(2,2-Difluorocyclopropyl)-4-fluoro-[1,1′-biphenyl]-2-yl)methoxy)phenyl)butanoic acid] was 10 to 500 nM.
In turn, `O=C(O)CCCc1ccc(OCc2cc(F)ccc2-c2nnc(C3CC3)s2)cc1` [Example 44, 4-(4-((2-(5-Cyclopropyl-1,3,4-thiadiazol-2-yl)-5-fluorobenzyl)oxy)phenyl)butanoic acid] gave an EC50 of 10 to 500 nM.
`O=C(O)CCCc1ccc(OCc2cc(F)ccc2-c2ncc(C3CC3)s2)cc1` [Example 45, 4-(4-((2-(5-Cyclopropylthiazol-2-yl)-5-fluorobenzyl)oxy)phenyl)butanoic acid] registered an EC50 of 10 to 500 nM.
With `O=C(O)CCCc1ccc(OCc2cc(F)ccc2-c2nc3c(s2)CCCC3)cc1` [Example 46, 4-(4-((5-Fluoro-2-(4,5,6,7-tetrahydrobenzo[d]thiazol-2-yl)benzyl)oxy)phenyl)butanoic acid] the figure was 10 to 500 nM; with `O=C(O)CCCc1ccc(OCc2cc(F)ccc2-c2nc3c(s2)CCC3)cc1` [Example 47, 4-(4-((2-(5,6-dihydro-4H-cyclopenta[d]thiazol-2-yl)-5-fluorobenzyl)oxy)phenyl)butanoic acid], 10 to 500 nM.
With `O=C(O)CCCc1ccc(OCc2cc(F)ccc2-c2nc3c(s2)COCC3)cc1` [Example 48, 4-(4-((2-(6,7-Dihydro-4H-pyrano[4,3-d]thiazol-2-yl)-5-fluorobenzyl)oxy)phenyl)butanoic acid] the figure was 500 to 5000 nM.
In turn, `O=C(O)CCCc1ccc(OCc2cc(F)ccc2-c2nc3c(s2)COCC3)cc1` [Example 49, 4-(4-((2-(6,7-Dihydro-4H-pyrano[4,3-d]thiazol-2-yl)-5-fluorobenzyl)oxy)phenyl)butanoic acid] showed an EC50 of 10 to 500 nM.
In turn, `O=C(O)CCCc1ccc(OCc2cc(F)ccc2-c2nc(C3CC3)cs2)cc1` [Example 50, 4-(4-((2-(4-Cyclopropylthiazol-2-yl)-5-fluorobenzyl)oxy)phenyl)butanoic acid] gave an EC50 of 500 to 5000 nM.

The values are drawn from patent US10227360B2, “Compounds for use as GPR120 agonists” (PIRAMAL ENTERPRISES LIMITED, priority 2014, dated 2019).
